Laboratory results from patent US20150210984A1, “METHOD FOR R[…] IN VITRO” (priority 2011, published 2015).

System: HCV Genotype 3
Assay: Patient-derived monocytes fused to hepatocytes, HCV RNA by qPCR
Assay type: cell-based
Conditions: fused cells from patients with genotype 3 HCV; 3 to 7 days with telaprevir; FIG. 8
Description: Patient derived monocytes from patients with genotype 1 and genotype 3 HCV were taken and incubated for a variety of different times (ranging from 3 to 7 days) with telaprevir at concentrations known to inhibit HCV RNA. The amount of HCV RNA was assessed using a standard qPCR technique and is expressed as the raw Ct value from the Corbett Rotorgene.
CD14+ monocytes were positively selected from total PBMCs by magnetic cell separation, according to the manufacturer's instructions. The CD14+ cells obtained were counted and pelleted with an equal number of HuH 7.5 cells. The cell pellet was resuspended in pre-warmed polyethylene glycol 1500 (PEG 1500, Roche) over 1 minute then incubated at 37° C. for 2 minutes. […]
RNA was extracted from fused cells immediately after fusion and following a 5 day incubation using TRIzol reagent (Invitrogen). Total RNA obtained was quantified using the RiboGreen assay (Invitrogen). HCV RNA was measured by reverse transcription-quantitative PCR (RT-qPCR) using the Quantitect viral nucleic acid detection kit (Qiagen) in 20 μL volumes with a TaqMan primer and probe for HCV detection (Applied Biosystems). 10-fold serial dilutions of PCR product corresponding to a 319 nucleotide segment between the 5′untranslated region and E1 region of the HCV genome were included as a quantitative standard. […]

**Q.** `CCC[C@H](NC(=O)[C@@H]1[C@H]2CCC[C@H]2CN1C(=O)[C@@H](NC(=O)[C@@H](NC(=O)c1cnccn1)C1CCCCC1)C(C)(C)C)C(=O)C(=O)NC1CC1` [telaprevir] was tested. Which “replication of HCV (HCV RNA)” value did it give?
**A.** Its value is “not inhibited”.
